According to ChEMBL document CHEMBL1201862, “PubChem BioAssay data set” (2004):
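Step 1: Grow cells in 96-well plates. Step 2: Expose to compound for 48 hours at 5 concentrations. Step 3: Interpolate endpoints linearly; if unreached, use highest concentration. Here, GI50 denotes the concentration required for 50% inhibition of growth.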 The source made the active and inactive calls. No stated cut-off is given here; in the data, active = GI50 up to about 1.1 µM and inactive = higher.

Columns and labels:
Assay in all cases: growth of human tumour cells (NCI), 48 h
[1] = system: ACHN
[2] = system: COLO 205
[3] = system: HCC 2998
[4] = system: HCT-116
[5] = system: HOP-62
[6] = system: NCI-H460
[7] = system: NCI/ADR-RES
[8] = system: OVCAR-5
[9] = system: RPMI-8226
[10] = system: RXF 393
[11] = system: SF-268
[12] = system: SK-MEL-5
[13] = system: SN12C
[14] = system: SNB-19
[15] = system: SNB-75
[16] = system: SR
[17] = system: T47D
[18] = system: TK-10
[19] = system: UACC-257
[20] = system: UO-31

Row | SMILES | GI50 [1] | GI50 [2] | GI50 [3] | GI50 [4] | GI50 [5] | GI50 [6] | GI50 [7] | GI50 [8] | GI50 [9] | GI50 [10] | GI50 [11] | GI50 [12] | GI50 [13] | GI50 [14] | GI50 [15] | GI50 [16] | GI50 [17] | GI50 [18] | GI50 [19] | GI50 [20]
1 | O=c1[nH]nc(-c2ccccc2)n1/N=C/c1ccncc1 | > 100 µM (inactive) | 54 µM (inactive) | > 100 µM (inactive) | 53.6 µM (inactive) | > 100 µM (inactive) | > 100 µM (inactive) | > 100 µM (inactive) | 37.7 µM (inactive) | > 100 µM (inactive) | 62.5 µM (inactive) | > 100 µM (inactive) | 44.7 µM (inactive) | > 100 µM (inactive) | > 100 µM (inactive) | 81.3 µM (inactive) | 74.1 µM (inactive) | > 100 µM (inactive) | > 100 µM (inactive) | > 100 µM (inactive) | 46.3 µM (inactive)
2 | c1ccc2cc(CN3CCC(C4CCN(Cc5ccc6ccccc6c5)CC4)CC3)ccc2c1 | 4.99 µM (inactive) | 1.76 µM (inactive) | 1.1 µM (active) | 6.79 µM (inactive) | 2.49 µM (inactive) | 3.11 µM (inactive) | 6.79 µM (inactive) | 10.1 µM (inactive) | 2.48 µM (inactive) | 2.74 µM (inactive) | 8.53 µM (inactive) | 2.06 µM (inactive) | 21.8 µM (inactive) | 11.5 µM (inactive) | 2.67 µM (inactive) | 3.24 µM (inactive) | 4.76 µM (inactive) | 3.82 µM (inactive) | 1.98 µM (inactive) | 1.34 µM (inactive)
3 | COC(=O)c1ccccc1C1=C([N+](=O)[O-])C(c2cccc(Br)c2)C(C#N)=C(N)O1 (stereo not given) | 23.6 µM (inactive) | 33 µM (inactive) | 26.3 µM (inactive) | 31.5 µM (inactive) | 33 µM (inactive) | 41.3 µM (inactive) | 23.3 µM (inactive) | > 100 µM (inactive) | 23.7 µM (inactive) | 18.3 µM (inactive) | 25.8 µM (inactive) | 86.5 µM (inactive) | 38 µM (inactive) | 91.6 µM (inactive) | 25.4 µM (inactive) | 18.2 µM (inactive) | 28.3 µM (inactive) | 46.5 µM (inactive) | 36.1 µM (inactive) | 
4 | O=C(/C=C1/Nc2ccc([N+](=O)[O-])cc2N/C1=C/C(=O)c1ccc(Cl)cc1)c1ccc(Cl)cc1 | > 100 µM (inactive) | > 100 µM (inactive) | > 100 µM (inactive) | 15 µM (inactive) | > 100 µM (inactive) | 42.9 µM (inactive) | 43.2 µM (inactive) | > 100 µM (inactive) |  | 66.5 µM (inactive) | 60.5 µM (inactive) | 33.3 µM (inactive) | 17.7 µM (inactive) | > 100 µM (inactive) | > 100 µM (inactive) | > 100 µM (inactive) | > 100 µM (inactive) | > 100 µM (inactive) | > 100 µM (inactive) | > 100 µM (inactive)
5 | CN(C)c1ccc(-c2ccc(N(C)C)c3n[se]nc23)c2n[se]nc12 | > 100 µM (inactive) |  | > 100 µM (inactive) | > 100 µM (inactive) | > 100 µM (inactive) | > 100 µM (inactive) | > 100 µM (inactive) | > 100 µM (inactive) | > 100 µM (inactive) | > 100 µM (inactive) | > 100 µM (inactive) | > 100 µM (inactive) | > 100 µM (inactive) |  | > 100 µM (inactive) | > 100 µM (inactive) | > 100 µM (inactive) | > 100 µM (inactive) | > 100 µM (inactive) | > 100 µM (inactive)
6 | Cc1nnc2n1-c1ccccc1C(=S)N1CSCC21 (stereo not given) | > 100 µM (inactive) | > 100 µM (inactive) | > 100 µM (inactive) | > 100 µM (inactive) | > 100 µM (inactive) | > 100 µM (inactive) | > 100 µM (inactive) | > 100 µM (inactive) | > 100 µM (inactive) | > 100 µM (inactive) | > 100 µM (inactive) | > 100 µM (inactive) | > 100 µM (inactive) | > 100 µM (inactive) | > 100 µM (inactive) | > 100 µM (inactive) | > 100 µM (inactive) | > 100 µM (inactive) | > 100 µM (inactive) | > 100 µM (inactive)
7 | CCC1CC(C)C(O)/C=C/C=C/CC(C)OC(=O)CC(O)C(OC)C1OC1OC(C)CC(O)(C(C)=O)C1O (stereo not given) | 49.5 µM (inactive) | 63.1 µM (inactive) | 21.7 µM (inactive) | > 100 µM (inactive) | 39.7 µM (inactive) |  | 49 µM (inactive) | > 100 µM (inactive) | 48.8 µM (inactive) | 44.7 µM (inactive) | 83.6 µM (inactive) | 69 µM (inactive) | 42.1 µM (inactive) | 19.3 µM (inactive) | 15.5 µM (inactive) | 14.1 µM (inactive) | 51.4 µM (inactive) | 60.8 µM (inactive) | 37.9 µM (inactive) | 47.3 µM (inactive)
